Data: patent publication US20240226106A1, “INHIBITORS OF PLASMA KALLIKREIN” (SHIRE HUMAN GENETIC THERAPIES, INC., priority 2021, published 2024)
pEC50: −log10 of the molar value.

Key:
[1] = biological target: human activated kallikrein enzyme (Homo sapiens, UniProt P03952); test: Inhibition of human activated plasma kallikrein, fluorogenic peptide substrate (PFR-AMC), 500 pM enzyme format; format: biochemical; conditions: 500 pM activated kallikrein, 30 min preincubation, 10 min reaction, room temperature, read-out: Primary Dose Response Assay: Average EC50
Method in brief: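 Enzyme at 500 pM with […] PFR-AMC in 20 mM Tris pH 7.5, 1 mM EDTA, 150 mM NaCl, 0.1% PEG-400, 0.1% Triton X-100. Inhibitor preincubated 30 min, then 10 min reaction at room temperature; AMC fluorescence read at 380 nm excitation/460 nm emission.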

[2] = biological target: T1, plasma kallikrein (Homo sapiens, UniProt P03952); test: Neat human plasma assay (fluorogenic peptide), contact pathway-activated plasma; format: biochemical; conditions: citrated human plasma, 10 nM human FXIIa activation, 100 μM PFR-AMC, room temperature; read-out: Human Plasma Assay: IC90
T1 construct: from tissue; host or cells: sodium citrate collected human plasma
T1 sequence (P03952 391-638 limits assumed): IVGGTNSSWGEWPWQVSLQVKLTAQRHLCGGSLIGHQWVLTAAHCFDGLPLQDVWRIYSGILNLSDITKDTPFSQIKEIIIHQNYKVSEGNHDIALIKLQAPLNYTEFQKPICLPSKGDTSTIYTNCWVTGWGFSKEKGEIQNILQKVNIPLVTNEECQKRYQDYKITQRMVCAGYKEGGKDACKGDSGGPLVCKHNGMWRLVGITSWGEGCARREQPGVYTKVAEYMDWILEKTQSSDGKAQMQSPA
T1 sequence (P03952 20-390 partner limits assumed): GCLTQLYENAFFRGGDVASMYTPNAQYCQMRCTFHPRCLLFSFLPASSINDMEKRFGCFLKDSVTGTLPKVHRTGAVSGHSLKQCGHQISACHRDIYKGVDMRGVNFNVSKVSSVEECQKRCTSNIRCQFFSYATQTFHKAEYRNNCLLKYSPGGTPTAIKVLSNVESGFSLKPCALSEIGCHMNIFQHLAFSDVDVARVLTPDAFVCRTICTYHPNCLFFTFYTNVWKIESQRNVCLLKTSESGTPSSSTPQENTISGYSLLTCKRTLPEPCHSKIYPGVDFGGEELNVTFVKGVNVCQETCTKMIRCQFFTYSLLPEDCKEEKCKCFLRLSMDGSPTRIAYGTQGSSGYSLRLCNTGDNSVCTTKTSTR

Sequence of human activated kallikrein enzyme (P03952 391-638 limits assumed): as the sequence (P03952 391-638 limits assumed) above
Sequence of human activated kallikrein enzyme (P03952 20-390 partner limits assumed): as the sequence (P03952 20-390 partner limits assumed) above

| SMILES | pEC50 [1] | IC90 [2] [nM] |
| --- | --- | --- |
| Cc1ccnc([C@H]2C[C@@H]2C(=O)Nc2cc(NCc3cc4cc(C5CC5)cc(N5CC(=O)N(C)C5=O)n4n3)ncn2)n1 [Example 101, (1S,2S)—N-(6-(((5-cyclopropyl-7-(3-methyl-2,4-dioxoimidazolidin-1-yl)pyrazolo[1,5-a]pyridin-2-yl)methyl)amino)pyrimidin-4-yl)-2-(4-methylpyrimidin-2-yl)cyclopropane-1-carboxamide] | > 8.60 | < 500 |
| Cc1ccnc([C@H]2C[C@@H]2C(=O)Nc2nncc(N[C@H](C)c3cc4cc(C5CC5)cc(N5CC6CC6C5=O)n4n3)n2)n1 (stereo partly drawn) [Example 105, (1S,2S)—N-(5-(((1R^•)-1-(5-cyclopropyl-7-(2-oxo-3-azabicyclo[3.1.0]hexan-3-yl)pyrazolo[1,5-a]pyridin-2-yl)ethyl)amino)-1,2,4-triazin-3-yl)-2-(4-methylpyrimidin-2-yl)cyclopropane-1-carboxamide] | > 8.60 | < 500 |
